# Assay results taken from ChEMBL document CHEMBL5291721, “A preclinical secondary pharmacology resource illuminates target-adverse drug reaction associations of marketed drugs” (Nat Commun, 2023).
# What was measured:
# [1] = target: T1, Muscarinic acetylcholine receptor M5 (Homo sapiens, UniProt P08912)
# T1 sequence (P08912 whole entry): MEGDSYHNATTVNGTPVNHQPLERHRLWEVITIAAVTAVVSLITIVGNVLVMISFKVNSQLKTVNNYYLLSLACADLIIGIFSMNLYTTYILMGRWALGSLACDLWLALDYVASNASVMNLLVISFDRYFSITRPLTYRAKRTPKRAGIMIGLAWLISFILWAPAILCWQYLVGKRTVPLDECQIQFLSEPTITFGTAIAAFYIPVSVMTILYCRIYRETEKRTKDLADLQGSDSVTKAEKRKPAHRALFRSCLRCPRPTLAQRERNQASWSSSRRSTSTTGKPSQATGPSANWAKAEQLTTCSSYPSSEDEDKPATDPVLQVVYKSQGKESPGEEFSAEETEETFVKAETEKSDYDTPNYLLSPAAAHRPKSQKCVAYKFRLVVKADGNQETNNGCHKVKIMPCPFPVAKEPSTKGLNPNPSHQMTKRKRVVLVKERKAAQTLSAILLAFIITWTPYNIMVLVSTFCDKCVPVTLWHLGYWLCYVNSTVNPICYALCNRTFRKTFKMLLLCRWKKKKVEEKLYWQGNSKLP
# [2] = target: 5-hydroxytryptamine receptor 5A (Homo sapiens, UniProt P47898)
# [3] = target: Gamma-aminobutyric acid type B receptor subunit 1 (Homo sapiens, UniProt Q9UBS5)
# D(1B) dopamine receptor = D(1B) dopamine receptor (Homo sapiens, UniProt P21918)
# [4] = target: 5-hydroxytryptamine receptor 7 (Homo sapiens, UniProt P34969)
# [5] = target: 5-hydroxytryptamine receptor 6 (Homo sapiens, UniProt P50406)
# [6] = target: T2, Type-2 angiotensin II receptor (Homo sapiens, UniProt P50052); format: functional
# T2 sequence (P50052 whole entry): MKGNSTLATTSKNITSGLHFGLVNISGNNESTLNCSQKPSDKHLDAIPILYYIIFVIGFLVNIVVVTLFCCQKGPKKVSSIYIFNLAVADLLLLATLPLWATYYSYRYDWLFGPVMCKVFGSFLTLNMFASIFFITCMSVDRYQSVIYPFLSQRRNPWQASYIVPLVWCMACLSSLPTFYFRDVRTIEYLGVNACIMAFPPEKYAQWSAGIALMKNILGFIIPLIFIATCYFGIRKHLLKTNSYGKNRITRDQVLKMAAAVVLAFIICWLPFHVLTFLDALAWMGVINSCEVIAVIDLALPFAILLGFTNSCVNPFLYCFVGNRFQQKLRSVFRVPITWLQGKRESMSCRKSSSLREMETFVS
# [7] = target: T3, Muscarinic acetylcholine receptor M2 (Homo sapiens, UniProt P08172)
# T3 sequence (P08172 whole entry): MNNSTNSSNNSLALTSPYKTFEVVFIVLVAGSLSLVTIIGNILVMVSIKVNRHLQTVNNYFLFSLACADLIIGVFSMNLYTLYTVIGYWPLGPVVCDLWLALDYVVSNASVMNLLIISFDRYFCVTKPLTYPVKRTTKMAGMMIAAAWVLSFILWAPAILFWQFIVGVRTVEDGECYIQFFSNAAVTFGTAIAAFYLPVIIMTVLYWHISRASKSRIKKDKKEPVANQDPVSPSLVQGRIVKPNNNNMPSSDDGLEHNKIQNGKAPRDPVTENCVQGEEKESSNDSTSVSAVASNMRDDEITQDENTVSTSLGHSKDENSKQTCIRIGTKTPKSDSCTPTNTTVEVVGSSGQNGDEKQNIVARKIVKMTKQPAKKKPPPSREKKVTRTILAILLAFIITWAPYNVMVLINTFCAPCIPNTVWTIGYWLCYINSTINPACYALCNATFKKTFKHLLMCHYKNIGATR
# [8] = target: Voltage-dependent L-type calcium channel subunit alpha-1C (Homo sapiens, UniProt Q13936); format: functional, cell-based
# [9] = target: T4, Alpha-2A adrenergic receptor (Homo sapiens, UniProt P08913)
# T4 sequence (P08913 whole entry): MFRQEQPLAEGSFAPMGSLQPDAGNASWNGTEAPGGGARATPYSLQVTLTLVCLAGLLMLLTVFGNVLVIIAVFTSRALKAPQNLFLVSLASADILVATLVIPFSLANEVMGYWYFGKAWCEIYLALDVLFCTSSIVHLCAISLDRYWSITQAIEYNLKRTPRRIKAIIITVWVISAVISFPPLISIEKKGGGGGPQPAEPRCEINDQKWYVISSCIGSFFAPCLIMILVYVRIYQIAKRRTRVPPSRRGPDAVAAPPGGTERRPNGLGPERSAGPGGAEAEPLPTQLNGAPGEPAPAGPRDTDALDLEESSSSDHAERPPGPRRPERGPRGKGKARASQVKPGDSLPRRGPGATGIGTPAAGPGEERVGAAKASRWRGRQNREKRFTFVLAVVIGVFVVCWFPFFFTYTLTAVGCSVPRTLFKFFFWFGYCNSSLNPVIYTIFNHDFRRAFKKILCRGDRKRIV
# [10] = target: Beta-1 adrenergic receptor (Homo sapiens, UniProt P08588); format: functional, cell-based
# Histamine H1 receptor [11] = target: T5, Histamine H1 receptor (Homo sapiens, UniProt P35367); format: functional, cell-based
# Histamine H1 receptor [12] = target: T5, Histamine H1 receptor; format: functional, cell-based; remark: listed apart in the source
# Also: assay procedure not described here.
# Chain of 5-hydroxytryptamine receptor 6 (P50406 whole entry): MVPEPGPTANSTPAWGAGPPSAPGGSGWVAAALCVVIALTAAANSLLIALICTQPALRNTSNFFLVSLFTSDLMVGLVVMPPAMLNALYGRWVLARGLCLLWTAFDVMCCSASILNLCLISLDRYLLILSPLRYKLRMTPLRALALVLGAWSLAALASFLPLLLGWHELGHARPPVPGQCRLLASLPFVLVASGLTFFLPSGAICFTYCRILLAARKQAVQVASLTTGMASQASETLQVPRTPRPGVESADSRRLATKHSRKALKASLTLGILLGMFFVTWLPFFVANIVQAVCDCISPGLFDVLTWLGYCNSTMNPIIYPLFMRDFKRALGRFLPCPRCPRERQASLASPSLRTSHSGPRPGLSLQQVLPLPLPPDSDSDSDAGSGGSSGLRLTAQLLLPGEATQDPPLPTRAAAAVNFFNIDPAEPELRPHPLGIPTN
# Chain of D(1B) dopamine receptor (P21918 whole entry): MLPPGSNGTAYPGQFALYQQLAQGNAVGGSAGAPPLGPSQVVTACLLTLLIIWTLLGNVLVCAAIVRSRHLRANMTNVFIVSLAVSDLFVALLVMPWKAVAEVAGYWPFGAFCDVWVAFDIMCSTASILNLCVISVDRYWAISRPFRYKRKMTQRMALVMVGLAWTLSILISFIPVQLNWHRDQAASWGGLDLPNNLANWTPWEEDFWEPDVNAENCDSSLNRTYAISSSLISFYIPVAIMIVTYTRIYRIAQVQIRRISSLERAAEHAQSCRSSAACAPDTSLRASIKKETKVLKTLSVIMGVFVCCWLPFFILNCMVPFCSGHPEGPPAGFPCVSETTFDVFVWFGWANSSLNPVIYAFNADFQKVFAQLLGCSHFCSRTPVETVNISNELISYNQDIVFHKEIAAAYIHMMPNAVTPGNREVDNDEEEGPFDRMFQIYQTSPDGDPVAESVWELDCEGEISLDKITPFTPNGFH
# Chain of Gamma-aminobutyric acid type B receptor subunit 1 (Q9UBS5 whole entry): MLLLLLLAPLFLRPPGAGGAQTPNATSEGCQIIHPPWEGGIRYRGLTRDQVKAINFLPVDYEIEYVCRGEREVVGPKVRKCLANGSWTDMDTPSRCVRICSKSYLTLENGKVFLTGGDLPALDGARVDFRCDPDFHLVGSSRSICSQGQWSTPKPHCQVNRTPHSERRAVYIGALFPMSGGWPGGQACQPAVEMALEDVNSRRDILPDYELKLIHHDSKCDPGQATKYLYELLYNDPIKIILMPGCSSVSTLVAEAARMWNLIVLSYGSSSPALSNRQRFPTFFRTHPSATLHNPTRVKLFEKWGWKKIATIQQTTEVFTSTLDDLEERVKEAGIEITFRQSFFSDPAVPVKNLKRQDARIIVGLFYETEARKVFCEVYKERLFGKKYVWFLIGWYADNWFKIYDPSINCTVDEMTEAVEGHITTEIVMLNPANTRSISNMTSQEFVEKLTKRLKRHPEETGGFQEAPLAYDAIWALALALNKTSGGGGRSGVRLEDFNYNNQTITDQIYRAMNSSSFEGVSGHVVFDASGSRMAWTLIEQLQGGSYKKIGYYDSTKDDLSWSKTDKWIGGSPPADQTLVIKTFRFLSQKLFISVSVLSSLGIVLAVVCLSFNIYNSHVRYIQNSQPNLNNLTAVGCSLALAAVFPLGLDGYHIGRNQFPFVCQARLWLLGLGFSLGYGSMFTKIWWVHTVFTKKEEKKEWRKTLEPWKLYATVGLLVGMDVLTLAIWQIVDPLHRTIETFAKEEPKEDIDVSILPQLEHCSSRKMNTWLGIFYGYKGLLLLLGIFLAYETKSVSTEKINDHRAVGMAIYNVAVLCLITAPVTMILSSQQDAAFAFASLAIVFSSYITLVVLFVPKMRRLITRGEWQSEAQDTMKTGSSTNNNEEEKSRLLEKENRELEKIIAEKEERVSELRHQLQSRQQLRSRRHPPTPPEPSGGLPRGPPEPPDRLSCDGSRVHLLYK
# T5 sequence (P35367 whole entry): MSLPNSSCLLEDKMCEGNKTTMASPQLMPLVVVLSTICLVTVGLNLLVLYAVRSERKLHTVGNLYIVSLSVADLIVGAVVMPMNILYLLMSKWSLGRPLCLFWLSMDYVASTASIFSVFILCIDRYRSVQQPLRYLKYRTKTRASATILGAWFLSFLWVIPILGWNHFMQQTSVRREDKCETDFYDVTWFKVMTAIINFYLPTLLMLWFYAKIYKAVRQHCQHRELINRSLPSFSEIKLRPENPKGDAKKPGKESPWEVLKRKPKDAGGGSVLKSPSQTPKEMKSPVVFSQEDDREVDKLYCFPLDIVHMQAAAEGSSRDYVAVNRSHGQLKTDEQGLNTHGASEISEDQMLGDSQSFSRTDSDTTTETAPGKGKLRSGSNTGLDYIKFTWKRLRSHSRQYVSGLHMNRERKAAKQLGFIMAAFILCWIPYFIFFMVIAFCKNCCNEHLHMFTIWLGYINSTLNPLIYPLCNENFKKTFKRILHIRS
# Chain of 5-hydroxytryptamine receptor 7 (P34969 whole entry): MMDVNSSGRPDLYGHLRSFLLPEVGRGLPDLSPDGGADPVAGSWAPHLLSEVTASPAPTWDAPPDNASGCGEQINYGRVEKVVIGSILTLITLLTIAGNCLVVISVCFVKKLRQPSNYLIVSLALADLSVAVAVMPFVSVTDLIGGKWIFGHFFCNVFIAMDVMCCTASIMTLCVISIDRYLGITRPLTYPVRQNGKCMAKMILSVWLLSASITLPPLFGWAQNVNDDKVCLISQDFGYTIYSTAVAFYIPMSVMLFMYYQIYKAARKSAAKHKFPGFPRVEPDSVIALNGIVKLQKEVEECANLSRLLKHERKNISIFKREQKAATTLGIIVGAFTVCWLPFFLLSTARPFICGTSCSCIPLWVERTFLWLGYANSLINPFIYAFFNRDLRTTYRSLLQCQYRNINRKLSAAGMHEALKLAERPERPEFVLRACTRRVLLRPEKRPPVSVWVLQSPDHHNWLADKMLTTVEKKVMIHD
# Chain of 5-hydroxytryptamine receptor 5A (P47898 whole entry): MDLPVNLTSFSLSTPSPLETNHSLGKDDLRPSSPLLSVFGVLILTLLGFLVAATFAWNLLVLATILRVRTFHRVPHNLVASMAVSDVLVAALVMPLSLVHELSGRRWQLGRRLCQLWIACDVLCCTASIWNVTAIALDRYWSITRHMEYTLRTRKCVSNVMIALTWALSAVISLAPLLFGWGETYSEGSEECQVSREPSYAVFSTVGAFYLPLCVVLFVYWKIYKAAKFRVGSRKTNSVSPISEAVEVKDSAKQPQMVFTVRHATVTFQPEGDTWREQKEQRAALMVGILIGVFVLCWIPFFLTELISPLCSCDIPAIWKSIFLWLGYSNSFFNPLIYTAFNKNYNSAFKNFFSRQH
# Chain of Beta-1 adrenergic receptor (P08588 whole entry): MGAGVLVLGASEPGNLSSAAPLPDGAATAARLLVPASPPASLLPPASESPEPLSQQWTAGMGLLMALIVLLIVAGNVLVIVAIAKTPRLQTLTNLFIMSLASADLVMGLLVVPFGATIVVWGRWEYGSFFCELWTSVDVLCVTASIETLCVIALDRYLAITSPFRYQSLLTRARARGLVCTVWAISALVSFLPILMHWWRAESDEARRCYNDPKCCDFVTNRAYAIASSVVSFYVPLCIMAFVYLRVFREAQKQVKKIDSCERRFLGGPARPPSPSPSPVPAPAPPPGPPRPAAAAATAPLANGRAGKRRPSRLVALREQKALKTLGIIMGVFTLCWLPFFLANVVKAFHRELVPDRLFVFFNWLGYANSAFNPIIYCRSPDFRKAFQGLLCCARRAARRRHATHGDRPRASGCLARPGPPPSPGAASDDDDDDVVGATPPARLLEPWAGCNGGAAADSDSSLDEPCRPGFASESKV
smiles,measurement,setting,value
O=C(Nc1nc(-c2cc(Cl)cs2)c(N2CCN(C3CCCCC3)CC2)s1)c1cnc(N2CCC(C(=O)O)CC2)c(Cl)c1 [AVATROMBOPAG],AC50,[1],> 10 µM
same,AC50,[2],> 10 µM
same,AC50,[3],> 10 µM
same,AC50,D(1B) dopamine receptor,> 10 µM
same,AC50,[4],> 10 µM
same,AC50,[5],> 10 µM
NS(=O)(=O)c1cc(C2(O)NC(=O)c3ccccc32)ccc1Cl (stereo unspecified) [CHLORTHALIDONE],AC50,[6],> 100 µM
OC(CCCN1CCCCC1)(c1ccccc1)c1ccccc1 [DIPHENIDOL],AC50,[7],0.38 µM
O=C(CCCN1CC=C(n2c(=O)[nH]c3ccccc32)CC1)c1ccc(F)cc1 [DROPERIDOL],AC50,[8],> 50 µM
CCn1cc(C(=O)O)c(=O)c2cc(F)c(N3CCNCC3)nc21 [ENOXACIN],AC50,[1],> 10 µM
same,AC50,[2],> 10 µM
same,AC50,[3],> 10 µM
same,AC50,D(1B) dopamine receptor,> 10 µM
same,AC50,[4],> 10 µM
same,AC50,[5],> 10 µM
c1ccc2c(CC3=NCCN3)cccc2c1 [NAPHAZOLINE],AC50,[9],0.0087 µM
CNC(=O)Oc1ccc2c(c1)[C@]1(C)CCN(C)[C@@H]1N2C [PHYSOSTIGMINE],AC50,[10],> 30 µM
NS(=O)(=O)c1cc(C(=O)O)cc(N2CCCC2)c1Oc1ccccc1 [PIRETANIDE],AC50,[6],> 100 µM
O=C(CCCN1CCC2(CC1)C(=O)NCN2c1ccccc1)c1ccc(F)cc1 [SPIPERONE],AC50,Histamine H1 receptor [11],7.1 µM
same,AC50,Histamine H1 receptor [12],1.2 µM
same,AC50,[9],17 µM
